Measurements as given in patent publication US20250122155A1, “NOVEL INDOLE DERIVATIVE, PHARMACEUTICAL COMPOSITION COMPRISING SAME, AND USE THEREOF” (MITOIMMUNE THERAPEUTICS INC., priority 2021, published 2025).

These compounds were tested on NIH/3T3 cells (assay: Cell death protective effect in fibroblasts against Erastin, glutamate and RSL3 (LDH)). Settings: NIH/3T3, Erastin 3 μM, compound 0.1 μM, 24 hours.
Assay type: cell-based, mouse
Description: (§1) In order to identify the protective effect on fibroblasts, NIH/3T3 cells were divided into 96-well plates by 8×10^3 and cultured for 18 to 24 hours. The compounds of Examples were diluted to final concentrations of 0.1 and 1 μM, treated in each well, and incubated for 15 to 20 minutes. Erastin, glutamate, and RSL3 were treated to have final concentrations of 3 μM, 30 mM, and 3 μM, respectively, and cultured for 24 hours. In order to identify the protective effect of each compound, the degree of LDH extracellular secretion was measured using cytotoxicity LDH assay kit [Dojindo; CK12]. Briefly, at the time when the treatment of the cells with Erastin, glutamate, and RSL3 for 24 hours is completed, the supernatants containing the cells are taken by 70 μL and transferred to a new 96-well plate. The assay buffer included in the kit is added in an amount of 70 μL/well (the same amount as the sample) thereto, and then the plate is wrapped with a foil and the reaction is performed at room temperature for 15 minutes. After observing the changed color of the sample, the stop solution was added in an amount of 35 μL/well thereto, and then the 00 inhibition value was calculated by measuring the absorbance value at a wavelength of 490 nm using an iD3 spectrophotometer.
With `CCOC(=O)c1ccc(NC2CCCCC2)c(N)c1` [Ferrostatin-1, reference compound] the “inhibition (%)” value was 17%.

Same assay, conditions: NIH/3T3, Erastin 3 μM, compound 1.0 μM, 24 hours
`CCOC(=O)c1ccc(NC2CCCCC2)c(N)c1` [Ferrostatin-1, reference compound] was tested, and the “inhibition (%)” value was 99%.

Same assay, conditions: NIH/3T3, Glutamate 30 mM, compound 0.1 μM, 24 hours
In the case of `CCOC(=O)c1ccc(NC2CCCCC2)c(N)c1` [Ferrostatin-1, reference compound], the “inhibition (%)” value is reported as 97%.

Same assay, conditions: NIH/3T3, Glutamate 30 mM, compound 1.0 μM, 24 hours
`CCOC(=O)c1ccc(NC2CCCCC2)c(N)c1` [Ferrostatin-1, reference compound] was tested, and the “inhibition (%)” value was 97%.

Same assay, conditions: NIH/3T3, RSL3 3 μM, compound 0.1 μM, 24 hours
`CCOC(=O)c1ccc(NC2CCCCC2)c(N)c1` [Ferrostatin-1, reference compound] was tested, and the “inhibition (%)” value was 100%.

Same assay, conditions: NIH/3T3, RSL3 3 μM, compound 1.0 μM, 24 hours
With `CCOC(=O)c1ccc(NC2CCCCC2)c(N)c1` [Ferrostatin-1, reference compound] the “inhibition (%)” value was 100%.

The compounds below were run on PC-12 cells (assay: Cell death protective effect in adrenal cells against Erastin, glutamate and RSL3 (LDH)). Settings: PC-12, Erastin 1 μM, compound 0.1 μM, 24 hours.
Assay type: cell-based, rat
Description: In order to identify the protective effect on adrenal cells, PC-12 cells were divided into 96-well plates by 1×10^4 and cultured for 18 to 24 hours. The compounds of Examples were diluted to final concentrations of 0.1 and 1.0 μM in Erastin, 0.01 and 0.1 in glutamate, and 0.3 and 3.0 μM in RSL3, treated in each well, and incubated for 15 to 20 minutes. Erastin, glutamate, and RSL3 were treated to have final concentrations of 1 μM, 10 mM, and 0.3 μM, respectively, and cultured for 24 hours. In order to identify the protective effect of each compound, the degree of LDH extracellular secretion was measured using cytotoxicity LDH assay kit [Dojindo; CK12]. Briefly, at the time when the treatment of the cells with Erastin, glutamate, and RSL3 for 24 hours is completed, the supernatants containing the cells are taken by 70 μL and transferred to a new 96-well plate. The assay buffer included in the kit is added in an amount of 70 μL/well (the same amount as the sample) thereto, and then the plate is wrapped with a foil and the reaction is performed at room temperature for 15 minutes. After observing the changed color of the sample, the stop solution was added in an amount of 35 µL/well thereto, and then the 0 inhibition value was calculated by measuring the absorbance value at a wavelength of 490 nm using an iD3 spectrophotometer.
With `CCOC(=O)c1ccc(NC2CCCCC2)c(N)c1` [Ferrostatin-1, reference compound] the “inhibition (%)” value was 100%.

Same assay, conditions: PC-12, Erastin 1 μM, compound 1.0 μM, 24 hours
For `CCOC(=O)c1ccc(NC2CCCCC2)c(N)c1` [Ferrostatin-1, reference compound], the “inhibition (%)” value was 100%.

Same assay, conditions: PC-12, Glutamate 10 mM, compound 0.01 μM, 24 hours
For `CCOC(=O)c1ccc(NC2CCCCC2)c(N)c1` [Ferrostatin-1, reference compound], the “inhibition (%)” value was 35%.

Same assay, conditions: PC-12, Glutamate 10 mM, compound 0.1 μM, 24 hours
`CCOC(=O)c1ccc(NC2CCCCC2)c(N)c1` [Ferrostatin-1, reference compound] was tested, and the “inhibition (%)” value was 98%.

Same assay, conditions: PC-12, RSL3 0.3 μM, compound 0.3 μM, 24 hours
For `CCOC(=O)c1ccc(NC2CCCCC2)c(N)c1` [Ferrostatin-1, reference compound], the “inhibition (%)” value was 100%.

Same assay, conditions: PC-12, RSL3 0.3 μM, compound 3.0 μM, 24 hours
With `CCOC(=O)c1ccc(NC2CCCCC2)c(N)c1` [Ferrostatin-1, reference compound] the “inhibition (%)” value was 100%.

Each compound was assayed on H9C2 cells (assay: Cell death protective effect in cardiac myocytes against Erastin, glutamate and RSL3 (LDH)). Settings: H9C2, Erastin 1 μM, compound 0.1 μM, 24 hours.
Assay type: cell-based, rat
Description: as §1, with “on cardiac cells, H9C2” for “on fibroblasts, NIH/3T3”, “by 1×10^4” for “by 8×10^3”, “of 1” for “of 3”, “μM, 25” for “μM, 30”, “and 0.5” for “and 3”, “minutes.” for “minutes. After observing the changed color of the sample, the stop solution was added in an amount of 35 μL/well thereto, and then the 00 inhibition value was calculated by measuring the absorbance value at a wavelength of 490 nm using an iD3 spectrophotometer.”
`CCOC(=O)c1ccc(NC2CCCCC2)c(N)c1` [Ferrostatin-1, reference compound] was tested, and the “inhibition (%)” value was 100%.

Same assay, conditions: H9C2, Erastin 1 μM, compound 1.0 μM, 24 hours
`CCOC(=O)c1ccc(NC2CCCCC2)c(N)c1` [Ferrostatin-1, reference compound] was tested, and the “inhibition (%)” value was 100%.

Same assay, conditions: H9C2, Glutamate 25 mM, compound 0.1 μM, 24 hours
In the case of `CCOC(=O)c1ccc(NC2CCCCC2)c(N)c1` [Ferrostatin-1, reference compound], the “inhibition (%)” value is reported as 98%.

Same assay, conditions: H9C2, Glutamate 25 mM, compound 1.0 μM, 24 hours
`CCOC(=O)c1ccc(NC2CCCCC2)c(N)c1` [Ferrostatin-1, reference compound] was tested, and the “inhibition (%)” value was 97%.

Same assay, conditions: H9C2, RSL3 0.5 μM, compound 0.1 μM, 24 hours
In the case of `CCOC(=O)c1ccc(NC2CCCCC2)c(N)c1` [Ferrostatin-1, reference compound], the “inhibition (%)” value is reported as 96%.

Same assay, conditions: H9C2, RSL3 0.5 μM, compound 1.0 μM, 24 hours
`CCOC(=O)c1ccc(NC2CCCCC2)c(N)c1` [Ferrostatin-1, reference compound] was tested, and the “inhibition (%)” value was 96%.

What follows are compounds tested on NRK-49F cells (assay: Cell death protective effect in renal fibroblasts against Erastin, glutamate and RSL3 (LDH)). Settings: Erastin 3 μM, compound 0.1 μM, 24 hours.
Assay type: cell-based, rat
Description: In order to identify the protective effect on renal fibroblasts, NRK-49F cells were divided into 96-well plates by 1×10^4 and cultured for 18 to 24 hours. The compounds of Examples were diluted to final concentrations of 0.1 and 1 μM, treated in each well, and incubated for 15 to 20 minutes. Erastin, glutamate, and RSL3 were treated to have final concentrations of 3 μM, 75 mM, and 3 μM, respectively, and cultured for 24 hours. In order to identify the protective effect of each compound, the degree of LDH extracellular secretion was measured using cytotoxicity LDH assay kit [Dojindo; CK12]. Briefly, at the time when the treatment of the cells with Erastin, glutamate, and RSL3 for 24 hours is completed, the supernatants containing the cells are taken by 70 μl and transferred to a new 96-well plate. The assay buffer included in the kit is added in an amount of 70 μL/well (the same amount as the sample) thereto, and then the plate is wrapped with a foil and the reaction is performed at room temperature for 15 minutes.
With `CCOC(=O)c1ccc(NC2CCCCC2)c(N)c1` [Ferrostatin-1, reference compound] the “inhibition (%)” value was 99%.

Same assay, conditions: Erastin 3 μM, compound 1.0 μM, 24 hours
In the case of `CCOC(=O)c1ccc(NC2CCCCC2)c(N)c1` [Ferrostatin-1, reference compound], the “inhibition (%)” value is reported as 98%.

Same assay, conditions: Glutamate 75 mM, compound 0.1 μM, 24 hours
`CCOC(=O)c1ccc(NC2CCCCC2)c(N)c1` [Ferrostatin-1, reference compound] was tested, and the “inhibition (%)” value was 95%.

Same assay, conditions: Glutamate 75 mM, compound 1.0 μM, 24 hours
With `CCOC(=O)c1ccc(NC2CCCCC2)c(N)c1` [Ferrostatin-1, reference compound] the “inhibition (%)” value was 100%.

Same assay, conditions: RSL3 3 μM, compound 0.1 μM, 24 hours
For `CCOC(=O)c1ccc(NC2CCCCC2)c(N)c1` [Ferrostatin-1, reference compound], the “inhibition (%)” value was 94%.

Same assay, conditions: RSL3 3 μM, compound 1.0 μM, 24 hours
For `CCOC(=O)c1ccc(NC2CCCCC2)c(N)c1` [Ferrostatin-1, reference compound], the “inhibition (%)” value was 99%.
